Assay results taken from patent US20220340629A1, “Myosin Derived Peptides and Related Compounds with Anticoagulant Activities” (THE SCRIPPS RESEARCH INSTITUTE, priority 0001, published 2022).
Residues, ends and D or L forms follow the SMILES beside them.

Target: skeletal muscle myosin-supported prothrombin activation by factors Xa and Va (Homo sapiens, UniProt P00742)
Assay: Assay 1A: prothrombin activation by factor Xa/factor Va/myosin in purified system
Assay type: biochemical, human factors Xa and Va; rabbit skeletal muscle myosin
Conditions: purified system; skeletal muscle myosin, factor Va 5 nM, factor Xa 0.2 nM, prothrombin 0.75 μM, 10 min; read-out: 1A (+myosin)

skeletal muscle myosin-supported prothrombin activation by factors Xa and Va, sequence (P00742 41-179): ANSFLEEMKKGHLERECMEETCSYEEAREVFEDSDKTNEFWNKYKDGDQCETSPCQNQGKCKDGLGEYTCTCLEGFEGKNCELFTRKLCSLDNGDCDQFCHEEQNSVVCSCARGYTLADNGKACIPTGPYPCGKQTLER
skeletal muscle myosin-supported prothrombin activation by factors Xa and Va, sequence (P00742 235-488): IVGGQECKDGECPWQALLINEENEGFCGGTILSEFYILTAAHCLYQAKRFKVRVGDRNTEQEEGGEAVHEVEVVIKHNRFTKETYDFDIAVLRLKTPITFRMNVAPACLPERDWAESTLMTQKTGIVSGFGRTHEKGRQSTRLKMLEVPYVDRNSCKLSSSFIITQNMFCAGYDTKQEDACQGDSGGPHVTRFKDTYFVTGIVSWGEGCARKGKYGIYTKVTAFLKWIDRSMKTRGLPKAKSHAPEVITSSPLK
skeletal muscle myosin-supported prothrombin activation by factors Xa and Va, sequence (P12259 29-737 partner): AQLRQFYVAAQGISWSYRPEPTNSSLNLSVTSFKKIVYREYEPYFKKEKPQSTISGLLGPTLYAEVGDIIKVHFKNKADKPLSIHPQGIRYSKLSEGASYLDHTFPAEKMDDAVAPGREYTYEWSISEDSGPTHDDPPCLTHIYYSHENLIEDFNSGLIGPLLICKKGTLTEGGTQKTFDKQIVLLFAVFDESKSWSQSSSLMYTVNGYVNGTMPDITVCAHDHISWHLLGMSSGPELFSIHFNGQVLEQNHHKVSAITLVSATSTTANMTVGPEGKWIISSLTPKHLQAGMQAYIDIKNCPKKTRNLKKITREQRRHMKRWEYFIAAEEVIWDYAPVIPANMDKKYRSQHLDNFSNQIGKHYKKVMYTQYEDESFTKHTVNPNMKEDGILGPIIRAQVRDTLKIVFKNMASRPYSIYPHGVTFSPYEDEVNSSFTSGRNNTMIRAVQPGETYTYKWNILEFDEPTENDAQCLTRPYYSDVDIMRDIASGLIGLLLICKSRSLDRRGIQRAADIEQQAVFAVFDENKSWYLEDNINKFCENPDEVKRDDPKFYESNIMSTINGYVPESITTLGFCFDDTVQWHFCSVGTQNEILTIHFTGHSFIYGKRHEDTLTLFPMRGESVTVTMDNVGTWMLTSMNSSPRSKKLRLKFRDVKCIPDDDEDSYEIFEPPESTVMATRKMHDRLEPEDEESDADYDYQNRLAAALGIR
skeletal muscle myosin-supported prothrombin activation by factors Xa and Va, sequence (P12259 1574-2224 partner): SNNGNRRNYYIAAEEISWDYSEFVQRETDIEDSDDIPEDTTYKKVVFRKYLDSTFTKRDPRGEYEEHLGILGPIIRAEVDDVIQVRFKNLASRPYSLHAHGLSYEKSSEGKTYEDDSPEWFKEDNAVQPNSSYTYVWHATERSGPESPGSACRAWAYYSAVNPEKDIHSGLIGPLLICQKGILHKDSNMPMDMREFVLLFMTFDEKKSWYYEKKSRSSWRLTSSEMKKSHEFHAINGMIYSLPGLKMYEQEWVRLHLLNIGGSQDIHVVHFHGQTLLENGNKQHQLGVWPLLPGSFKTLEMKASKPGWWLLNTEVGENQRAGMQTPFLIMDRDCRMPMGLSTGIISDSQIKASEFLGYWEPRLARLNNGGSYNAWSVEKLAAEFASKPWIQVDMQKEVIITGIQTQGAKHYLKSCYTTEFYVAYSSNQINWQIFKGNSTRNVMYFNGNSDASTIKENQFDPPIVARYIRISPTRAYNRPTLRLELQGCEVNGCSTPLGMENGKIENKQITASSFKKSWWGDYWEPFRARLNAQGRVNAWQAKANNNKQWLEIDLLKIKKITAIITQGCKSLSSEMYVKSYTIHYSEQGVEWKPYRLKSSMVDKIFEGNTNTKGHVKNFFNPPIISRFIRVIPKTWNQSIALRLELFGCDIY

SMILES	IC50 [nM]
CC[C@H](C)[C@H](NC(=O)[C@H](C)N)C(=O)N[C@@H](Cc1ccccc1)C(=O)N[C@@H](CS)C(=O)N[C@H](C(=O)N[C@@H](CCC(N)=O)C(=O)N[C@@H](Cc1ccc(O)cc1)C(=O)N[C@@H](CC(N)=O)C(=O)N[C@H](C(=O)N[C@@H](CCCNC(=N)N)C(=O)N[C@@H](CO)C(=O)N[C@@H](Cc1ccccc1)C(=O)N[C@@H](CCSC)C(=O)N[C@@H](C)C(=O)N[C@H](C(=O)N[C@@H](CCCCN)C(=O)N[C@@H](Cc1c[nH]cn1)C(=O)N[C@@H](Cc1c[nH]c2ccccc12)C(=O)N1CCC[C@H]1C(=O)N[C@@H](Cc1c[nH]c2ccccc12)C(=O)N[C@@H](CCSC)C(=O)N[C@@H](CCCCN)C(N)=O)C(C)C)[C@@H](C)CC)[C@@H](C)CC [HC129] (H-AIFCIQYNIRSFMAVKHWPWMK-NH2; N-terminus assumed)	4200
CC[C@H](C)[C@H](NC(=O)[C@H](C)N)C(=O)N[C@@H](Cc1ccccc1)C(=O)N[C@@H](CS)C(=O)N[C@H](C(=O)N[C@@H](CCC(N)=O)C(=O)N[C@@H](Cc1ccc(O)cc1)C(=O)N[C@@H](CC(N)=O)C(=O)N[C@H](C(=O)N[C@@H](CCCNC(=N)N)C(=O)N[C@@H](CO)C(=O)N[C@@H](Cc1ccccc1)C(=O)N[C@@H](CCSC)C(=O)N[C@@H](CC(N)=O)C(=O)N[C@@H](C)C(=O)N[C@@H](CCCCN)C(=O)N[C@@H](Cc1c[nH]cn1)C(=O)N[C@@H](Cc1c[nH]c2ccccc12)C(=O)N1CCC[C@H]1C(=O)N[C@@H](Cc1c[nH]c2ccccc12)C(=O)N[C@@H](CCSC)C(=O)N[C@@H](CCCCN)C(N)=O)[C@@H](C)CC)[C@@H](C)CC [HC130] (H-AIFCIQYNIRSFMNAKHWPWMK-NH2; N-terminus assumed)	2100
CC[C@H](C)[C@H](NC(=O)[C@H](C)N)C(=O)N[C@@H](Cc1ccccc1)C(=O)N[C@@H](CS)C(=O)N[C@H](C(=O)N[C@@H](CCC(N)=O)C(=O)N[C@@H](Cc1ccc(O)cc1)C(=O)N[C@@H](CC(N)=O)C(=O)N[C@H](C(=O)N[C@@H](CCCNC(=N)N)C(=O)N[C@@H](CO)C(=O)N[C@@H](Cc1ccccc1)C(=O)N[C@@H](CCSC)C(=O)N[C@@H](CC(N)=O)C(=O)N[C@H](C(=O)N[C@@H](C)C(=O)N[C@@H](Cc1c[nH]cn1)C(=O)N[C@@H](Cc1c[nH]c2ccccc12)C(=O)N1CCC[C@H]1C(=O)N[C@@H](Cc1c[nH]c2ccccc12)C(=O)N[C@@H](CCSC)C(=O)N[C@@H](CCCCN)C(N)=O)C(C)C)[C@@H](C)CC)[C@@H](C)CC [HC131] (H-AIFCIQYNIRSFMNVAHWPWMK-NH2; N-terminus assumed)	2200
CC[C@H](C)[C@H](NC(=O)[C@H](C)N)C(=O)N[C@@H](Cc1ccccc1)C(=O)N[C@@H](CS)C(=O)N[C@H](C(=O)N[C@@H](CCC(N)=O)C(=O)N[C@@H](Cc1ccc(O)cc1)C(=O)N[C@@H](CC(N)=O)C(=O)N[C@H](C(=O)N[C@@H](CCCNC(=N)N)C(=O)N[C@@H](CO)C(=O)N[C@@H](Cc1ccccc1)C(=O)N[C@@H](CCSC)C(=O)N[C@@H](CC(N)=O)C(=O)N[C@H](C(=O)N[C@@H](CCCCN)C(=O)N[C@@H](C)C(=O)N[C@@H](Cc1c[nH]c2ccccc12)C(=O)N1CCC[C@H]1C(=O)N[C@@H](Cc1c[nH]c2ccccc12)C(=O)N[C@@H](CCSC)C(=O)N[C@@H](CCCCN)C(N)=O)C(C)C)[C@@H](C)CC)[C@@H](C)CC [HC132] (H-AIFCIQYNIRSFMNVKAWPWMK-NH2; N-terminus assumed)	3100
CC[C@H](C)[C@H](NC(=O)[C@H](C)N)C(=O)N[C@@H](Cc1ccccc1)C(=O)N[C@@H](CS)C(=O)N[C@H](C(=O)N[C@@H](CCC(N)=O)C(=O)N[C@@H](Cc1ccc(O)cc1)C(=O)N[C@@H](CC(N)=O)C(=O)N[C@H](C(=O)N[C@@H](CCCNC(=N)N)C(=O)N[C@@H](CO)C(=O)N[C@@H](Cc1ccccc1)C(=O)N[C@@H](CCSC)C(=O)N[C@@H](CC(N)=O)C(=O)N[C@H](C(=O)N[C@@H](CCCCN)C(=O)N[C@@H](Cc1c[nH]cn1)C(=O)N[C@@H](C)C(=O)N1CCC[C@H]1C(=O)N[C@@H](Cc1c[nH]c2ccccc12)C(=O)N[C@@H](CCSC)C(=O)N[C@@H](CCCCN)C(N)=O)C(C)C)[C@@H](C)CC)[C@@H](C)CC [HC133] (H-AIFCIQYNIRSFMNVKHAPWMK-NH2; N-terminus assumed)	1800
